Laboratory results published in ChEMBL document CHEMBL5465560, “Selectivity Literature for EUbOPEN Chemogenomic Library” (2024).

Key:
[1] = biological target: Serine/threonine-protein kinase 35 (Homo sapiens) (UniProt Q8TDR2); test: Selectivity interaction (KinomeScan (DiscoverX)) EUB0000655a STK35; details: at 10 µM
[2] = biological target: T1, Dual specificity mitogen-activated protein kinase kinase 5 (Homo sapiens) (UniProt Q13163); test: Selectivity interaction (KinomeScan (DiscoverX)) EUB0001079a MAP2K5; details: at 1 µM
T1 sequence (whole entry): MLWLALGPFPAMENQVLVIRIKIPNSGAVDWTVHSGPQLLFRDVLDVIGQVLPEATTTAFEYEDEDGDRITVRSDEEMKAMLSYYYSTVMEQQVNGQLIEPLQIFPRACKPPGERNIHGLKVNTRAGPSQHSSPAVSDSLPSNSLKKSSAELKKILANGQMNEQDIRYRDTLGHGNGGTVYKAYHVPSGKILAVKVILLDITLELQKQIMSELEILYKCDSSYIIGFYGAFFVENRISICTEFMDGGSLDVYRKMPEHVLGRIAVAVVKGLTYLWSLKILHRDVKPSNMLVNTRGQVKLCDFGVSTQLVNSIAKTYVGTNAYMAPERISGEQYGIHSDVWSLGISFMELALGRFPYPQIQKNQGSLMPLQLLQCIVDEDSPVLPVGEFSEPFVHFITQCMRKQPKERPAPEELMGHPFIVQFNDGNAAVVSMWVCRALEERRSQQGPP

[3] = biological target: T2, Tyrosine-protein kinase TXK (Homo sapiens) (UniProt P42681); test: Selectivity interaction (KinomeScan (DiscoverX)) EUB0001079a TXK; details: at 1 µM
T2 sequence (whole entry): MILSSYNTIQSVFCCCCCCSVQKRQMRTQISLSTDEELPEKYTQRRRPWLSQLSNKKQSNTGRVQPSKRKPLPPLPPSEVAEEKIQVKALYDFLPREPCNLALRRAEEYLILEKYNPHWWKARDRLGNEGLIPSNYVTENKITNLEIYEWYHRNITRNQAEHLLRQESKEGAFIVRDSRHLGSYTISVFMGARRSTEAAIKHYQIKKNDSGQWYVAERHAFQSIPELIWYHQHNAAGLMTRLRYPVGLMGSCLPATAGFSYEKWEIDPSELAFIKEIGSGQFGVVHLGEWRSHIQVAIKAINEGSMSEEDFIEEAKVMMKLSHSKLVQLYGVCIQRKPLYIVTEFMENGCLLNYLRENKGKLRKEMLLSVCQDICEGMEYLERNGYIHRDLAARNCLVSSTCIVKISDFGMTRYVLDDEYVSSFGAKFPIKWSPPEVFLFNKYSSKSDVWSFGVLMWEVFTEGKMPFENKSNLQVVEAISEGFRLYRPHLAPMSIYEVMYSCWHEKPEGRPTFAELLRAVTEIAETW

[4] = biological target: T3, Serine/threonine-protein kinase Sgk2 (Homo sapiens) (UniProt Q9HBY8); test: Selectivity interaction (SelectScreen profiling (Invitrogen)) EUB0000607a SGK2; details: at 2 µM
T3 sequence (whole entry): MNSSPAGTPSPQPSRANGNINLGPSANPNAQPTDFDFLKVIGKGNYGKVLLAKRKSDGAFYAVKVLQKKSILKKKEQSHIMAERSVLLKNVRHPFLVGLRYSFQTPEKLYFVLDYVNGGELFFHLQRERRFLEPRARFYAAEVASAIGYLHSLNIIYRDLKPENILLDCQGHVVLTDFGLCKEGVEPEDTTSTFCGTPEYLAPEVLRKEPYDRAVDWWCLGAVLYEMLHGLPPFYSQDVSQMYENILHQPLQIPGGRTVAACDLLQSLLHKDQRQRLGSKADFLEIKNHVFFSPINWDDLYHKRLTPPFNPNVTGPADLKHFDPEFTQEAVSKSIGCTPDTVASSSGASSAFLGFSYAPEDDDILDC

[5] = tested on: Hepatocyte growth factor receptor (Homo sapiens), P08581 [M1250T]; test: (§1) Selectivity interaction (KinomeScan (DiscoverX)) EUB0001619a MET; details: at 1 µM
Hepatocyte growth factor receptor (Homo sapiens), P08581 [M1250T], sequence (P08581 whole entry M1250T): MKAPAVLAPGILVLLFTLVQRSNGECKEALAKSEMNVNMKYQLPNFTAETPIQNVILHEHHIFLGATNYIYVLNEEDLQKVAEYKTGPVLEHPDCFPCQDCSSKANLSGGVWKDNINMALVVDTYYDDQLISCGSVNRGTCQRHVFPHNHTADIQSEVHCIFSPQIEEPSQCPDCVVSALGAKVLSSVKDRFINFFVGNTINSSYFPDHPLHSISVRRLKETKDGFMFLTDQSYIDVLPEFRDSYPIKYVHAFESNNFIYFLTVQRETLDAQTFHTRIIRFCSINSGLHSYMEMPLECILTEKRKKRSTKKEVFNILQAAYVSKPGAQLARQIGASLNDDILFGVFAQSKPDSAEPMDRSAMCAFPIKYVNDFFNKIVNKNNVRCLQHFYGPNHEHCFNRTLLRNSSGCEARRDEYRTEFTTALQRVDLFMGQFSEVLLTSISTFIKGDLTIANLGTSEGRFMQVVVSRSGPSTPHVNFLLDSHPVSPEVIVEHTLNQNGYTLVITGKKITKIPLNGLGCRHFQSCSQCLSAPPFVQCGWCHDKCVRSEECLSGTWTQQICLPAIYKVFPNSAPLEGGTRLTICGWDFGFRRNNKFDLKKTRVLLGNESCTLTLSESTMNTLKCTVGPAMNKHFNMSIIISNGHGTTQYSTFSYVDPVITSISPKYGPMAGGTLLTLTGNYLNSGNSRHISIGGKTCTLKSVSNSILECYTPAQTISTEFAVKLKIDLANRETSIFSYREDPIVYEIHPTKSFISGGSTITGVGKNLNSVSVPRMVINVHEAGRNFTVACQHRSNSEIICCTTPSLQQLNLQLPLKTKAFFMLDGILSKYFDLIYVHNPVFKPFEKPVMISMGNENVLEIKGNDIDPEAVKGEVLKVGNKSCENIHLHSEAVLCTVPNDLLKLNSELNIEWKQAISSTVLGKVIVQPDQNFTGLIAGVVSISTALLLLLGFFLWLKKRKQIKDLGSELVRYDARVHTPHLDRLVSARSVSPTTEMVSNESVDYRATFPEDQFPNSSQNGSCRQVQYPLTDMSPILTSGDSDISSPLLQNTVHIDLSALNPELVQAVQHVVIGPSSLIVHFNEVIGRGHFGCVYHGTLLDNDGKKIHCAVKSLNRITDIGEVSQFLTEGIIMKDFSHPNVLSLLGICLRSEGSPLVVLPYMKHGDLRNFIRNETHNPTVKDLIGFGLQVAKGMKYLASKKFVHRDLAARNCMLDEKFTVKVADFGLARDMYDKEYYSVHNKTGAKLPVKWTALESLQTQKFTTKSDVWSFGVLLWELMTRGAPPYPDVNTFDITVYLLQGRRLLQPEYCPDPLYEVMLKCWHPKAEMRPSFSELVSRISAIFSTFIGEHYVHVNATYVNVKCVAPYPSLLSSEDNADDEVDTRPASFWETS

[6] = tested on: Hepatocyte growth factor receptor (Homo sapiens), P08581 [Y1235D]; test: as §1; details: at 1 µM
[7] = biological target: Hepatocyte growth factor receptor (Homo sapiens, UniProt P08581); test: as §1; details: at 1 µM
Insulin receptor [8] = biological target: T4, Insulin receptor (Homo sapiens, UniProt P06213); test: Selectivity interaction (KinomeScan (DiscoverX)) EUB0000045b INSR
T4 sequence (P06213 28-758 limits assumed): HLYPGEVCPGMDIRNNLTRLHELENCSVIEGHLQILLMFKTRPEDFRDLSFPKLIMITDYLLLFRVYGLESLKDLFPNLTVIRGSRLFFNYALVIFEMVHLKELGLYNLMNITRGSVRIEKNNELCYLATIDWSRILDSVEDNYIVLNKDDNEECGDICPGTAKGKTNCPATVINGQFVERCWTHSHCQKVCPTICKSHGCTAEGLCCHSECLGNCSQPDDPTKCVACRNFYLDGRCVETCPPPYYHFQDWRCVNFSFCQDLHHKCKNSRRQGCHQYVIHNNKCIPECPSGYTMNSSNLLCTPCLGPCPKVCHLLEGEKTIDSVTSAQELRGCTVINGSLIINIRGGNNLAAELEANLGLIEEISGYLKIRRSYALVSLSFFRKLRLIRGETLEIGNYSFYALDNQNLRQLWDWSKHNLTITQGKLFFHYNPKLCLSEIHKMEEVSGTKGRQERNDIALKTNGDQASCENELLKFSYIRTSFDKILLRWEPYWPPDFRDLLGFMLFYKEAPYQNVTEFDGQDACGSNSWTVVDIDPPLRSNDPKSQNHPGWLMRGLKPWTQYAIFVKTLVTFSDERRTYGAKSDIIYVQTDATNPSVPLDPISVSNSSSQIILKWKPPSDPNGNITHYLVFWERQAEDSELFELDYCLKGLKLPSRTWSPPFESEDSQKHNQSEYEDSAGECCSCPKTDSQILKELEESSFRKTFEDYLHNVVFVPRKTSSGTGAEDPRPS
T4 sequence (P06213 763-1382 limits assumed): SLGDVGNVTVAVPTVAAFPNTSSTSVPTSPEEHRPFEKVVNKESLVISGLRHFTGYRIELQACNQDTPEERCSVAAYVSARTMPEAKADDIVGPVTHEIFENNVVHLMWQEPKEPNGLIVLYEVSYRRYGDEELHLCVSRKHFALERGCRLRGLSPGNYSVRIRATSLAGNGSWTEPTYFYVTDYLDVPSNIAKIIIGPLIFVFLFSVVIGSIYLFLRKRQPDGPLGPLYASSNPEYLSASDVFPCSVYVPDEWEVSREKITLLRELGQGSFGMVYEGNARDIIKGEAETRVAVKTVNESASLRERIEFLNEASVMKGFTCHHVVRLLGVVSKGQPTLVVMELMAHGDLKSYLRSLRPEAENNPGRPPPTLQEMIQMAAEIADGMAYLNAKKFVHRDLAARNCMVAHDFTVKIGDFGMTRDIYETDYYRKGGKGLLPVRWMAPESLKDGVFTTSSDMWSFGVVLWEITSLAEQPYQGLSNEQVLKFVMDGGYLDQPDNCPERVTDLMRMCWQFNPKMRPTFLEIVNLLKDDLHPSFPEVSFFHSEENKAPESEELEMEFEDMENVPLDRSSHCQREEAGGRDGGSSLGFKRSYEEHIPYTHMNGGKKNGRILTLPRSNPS

[9] = biological target: Tyrosine-protein kinase Yes (Homo sapiens) (UniProt P07947); test: Selectivity interaction (KinomeScan (DiscoverX)) EUB0000595a YES1; details: at 10 µM
Tyrosine-protein kinase Yes (Homo sapiens), sequence (P07947 2-543 limits assumed): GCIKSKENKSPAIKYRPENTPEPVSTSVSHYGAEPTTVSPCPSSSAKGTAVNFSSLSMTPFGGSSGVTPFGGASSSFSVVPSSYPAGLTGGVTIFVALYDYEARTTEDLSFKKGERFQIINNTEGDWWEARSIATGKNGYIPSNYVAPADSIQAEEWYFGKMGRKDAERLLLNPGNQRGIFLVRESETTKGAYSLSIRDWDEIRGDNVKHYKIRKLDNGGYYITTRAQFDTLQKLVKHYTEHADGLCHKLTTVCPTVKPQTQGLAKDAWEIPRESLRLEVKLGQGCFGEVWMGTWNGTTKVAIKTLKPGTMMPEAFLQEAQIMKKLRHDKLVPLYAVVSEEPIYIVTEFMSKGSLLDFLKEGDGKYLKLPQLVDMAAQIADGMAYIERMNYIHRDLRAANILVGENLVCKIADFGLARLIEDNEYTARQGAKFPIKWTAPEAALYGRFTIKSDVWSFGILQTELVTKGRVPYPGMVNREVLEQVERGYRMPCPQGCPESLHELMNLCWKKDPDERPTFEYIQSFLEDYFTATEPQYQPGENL

[10] = biological target: T5, Mitogen-activated protein kinase kinase kinase kinase 2 (Homo sapiens) (UniProt Q12851); test: Selectivity interaction (ActivX KiNativ screen (kinase selectivity in THP-1 cell lysates)) EUB0000639a MAP4K2; format: subcellular; details: lysate, at 5 µM
T5 sequence (whole entry): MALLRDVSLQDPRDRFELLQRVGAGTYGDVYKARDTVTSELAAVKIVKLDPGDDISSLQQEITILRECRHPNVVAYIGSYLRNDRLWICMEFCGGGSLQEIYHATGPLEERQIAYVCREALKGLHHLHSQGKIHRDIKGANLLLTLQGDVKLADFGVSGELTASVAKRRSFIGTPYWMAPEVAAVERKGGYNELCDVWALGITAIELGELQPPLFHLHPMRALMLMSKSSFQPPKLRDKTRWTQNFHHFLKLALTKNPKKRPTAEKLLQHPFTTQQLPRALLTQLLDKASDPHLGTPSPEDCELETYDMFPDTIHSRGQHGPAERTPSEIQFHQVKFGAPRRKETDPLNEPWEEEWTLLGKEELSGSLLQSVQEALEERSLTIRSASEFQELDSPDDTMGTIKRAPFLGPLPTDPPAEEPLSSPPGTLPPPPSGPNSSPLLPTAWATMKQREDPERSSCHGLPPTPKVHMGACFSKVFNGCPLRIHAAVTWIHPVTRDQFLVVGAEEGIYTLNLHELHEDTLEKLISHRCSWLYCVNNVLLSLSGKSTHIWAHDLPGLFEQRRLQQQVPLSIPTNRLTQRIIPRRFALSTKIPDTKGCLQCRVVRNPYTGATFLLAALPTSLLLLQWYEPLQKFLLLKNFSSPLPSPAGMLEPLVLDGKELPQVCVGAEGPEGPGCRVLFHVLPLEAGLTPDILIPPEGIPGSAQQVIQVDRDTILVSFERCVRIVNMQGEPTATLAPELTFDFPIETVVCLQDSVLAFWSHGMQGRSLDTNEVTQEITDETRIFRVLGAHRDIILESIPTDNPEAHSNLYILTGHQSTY

[11] = biological target: Phosphatidylinositol 4-phosphate 5-kinase type-1 alpha (Homo sapiens) (UniProt Q99755); test: Selectivity interaction (ProQinase) EUB0000171b PIP5K1A
Phosphatidylinositol 4-phosphate 5-kinase type-1 alpha (Homo sapiens), sequence (Q99755 whole entry): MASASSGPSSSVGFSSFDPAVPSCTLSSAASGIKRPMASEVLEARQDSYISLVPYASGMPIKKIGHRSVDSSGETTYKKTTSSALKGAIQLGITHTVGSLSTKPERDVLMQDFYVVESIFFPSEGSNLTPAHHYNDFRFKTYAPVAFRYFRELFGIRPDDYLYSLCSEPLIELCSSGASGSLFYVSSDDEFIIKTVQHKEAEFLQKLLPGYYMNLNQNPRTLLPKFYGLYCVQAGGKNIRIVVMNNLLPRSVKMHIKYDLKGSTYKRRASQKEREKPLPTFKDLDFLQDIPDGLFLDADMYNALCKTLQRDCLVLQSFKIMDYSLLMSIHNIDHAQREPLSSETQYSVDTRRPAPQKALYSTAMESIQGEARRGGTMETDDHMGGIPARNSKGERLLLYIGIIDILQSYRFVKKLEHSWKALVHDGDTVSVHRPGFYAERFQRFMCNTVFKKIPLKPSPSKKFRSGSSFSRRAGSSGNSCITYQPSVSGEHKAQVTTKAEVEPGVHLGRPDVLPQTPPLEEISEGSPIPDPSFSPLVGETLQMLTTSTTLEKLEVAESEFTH

[12] = biological target: NT-3 growth factor receptor (Homo sapiens, UniProt Q16288); test: Selectivity interaction (KinomeScan (DiscoverX)) EUB0000666a NTRK3; details: at 10 µM
NT-3 growth factor receptor, sequence (Q16288 32-839 limits assumed): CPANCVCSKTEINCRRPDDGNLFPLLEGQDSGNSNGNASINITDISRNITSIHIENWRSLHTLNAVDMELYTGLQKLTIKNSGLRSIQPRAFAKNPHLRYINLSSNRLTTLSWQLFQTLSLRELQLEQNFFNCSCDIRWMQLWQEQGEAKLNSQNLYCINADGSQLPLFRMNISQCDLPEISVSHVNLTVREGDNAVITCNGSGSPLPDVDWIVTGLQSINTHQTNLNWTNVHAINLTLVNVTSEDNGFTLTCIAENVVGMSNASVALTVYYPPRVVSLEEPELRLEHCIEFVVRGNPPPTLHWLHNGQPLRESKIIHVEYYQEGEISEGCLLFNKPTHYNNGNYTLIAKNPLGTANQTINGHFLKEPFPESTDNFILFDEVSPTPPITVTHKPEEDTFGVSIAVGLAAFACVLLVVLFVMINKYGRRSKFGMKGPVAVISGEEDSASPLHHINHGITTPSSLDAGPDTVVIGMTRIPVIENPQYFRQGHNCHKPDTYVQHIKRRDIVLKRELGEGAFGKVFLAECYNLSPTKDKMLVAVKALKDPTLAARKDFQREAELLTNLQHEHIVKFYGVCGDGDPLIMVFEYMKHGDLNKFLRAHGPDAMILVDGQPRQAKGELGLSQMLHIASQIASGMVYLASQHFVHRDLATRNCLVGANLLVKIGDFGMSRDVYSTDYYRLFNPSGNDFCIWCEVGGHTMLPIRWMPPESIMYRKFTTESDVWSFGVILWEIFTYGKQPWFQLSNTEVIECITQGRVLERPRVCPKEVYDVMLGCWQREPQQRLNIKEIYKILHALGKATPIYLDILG

[13] = biological target: [Pyruvate dehydrogenase (acetyl-transferring)] kinase isozyme 1, mitochondrial (Homo sapiens, UniProt Q15118); test: Selectivity interaction (Kinase screening (Upstate/Millipore)) EUB0000604a PDK1
Insulin receptor [14] = biological target: T4, Insulin receptor; test: Selectivity interaction (KinomeScan (DiscoverX)) EUB0000695a INSR; details: at 100 nM

Work on CN(C)CCOc1ccc(-c2nc(-c3ccncc3)c(-c3ccc4c(c3)CC/C4=N\O)[nH]2)cc1 yielded a % of control [1] of 100%.
For Nc1cnc(N2CCc3cc(S(=O)(=O)Nc4c(F)cc(Cl)cc4F)cc(N4CCCC4=O)c32)nc1 [TP-020n], the % of control [2] was 84% and the % of control [3] was 83%.
CNC(=O)Nc1ccc(-c2nc(N3CC4CCC(C3)O4)c3cnn(C4CCC5(CC4)OCCO5)c3n2)cc1 gave a % of inhibition [4] of 5%.
Molecule N#Cc1cccc(-c2c[nH]c3ncnc(N4CCOCC4)c23)c1 has a % of control [5] of 96%, a % of control [6] of 93% and a % of control [7] of 93%.
C=CC(=O)Nc1cc(-n2c(=O)ccc3cnc4ccc(-c5ccc(NS(C)(=O)=O)cc5)cc4c32)ccc1C gave a % of control (Insulin receptor [8]; at 1 µM) of 93% and a % of control (Insulin receptor [8]; at 10 µM) of 100%.
Molecule COCC(=O)NC/C=C/c1ccc2ncnc(Nc3ccc(Oc4ccc(C)nc4)c(C)c3)c2c1 [CP-724714] has a % of control [9] of 65%.
For CC[C@@H]1[C@H](F)C(=O)N[C@@H]1COc1nccc2cc(C(N)=O)c(OC)cc12 [ZIMLOVISERTIB], the % of inhibition [10] was -1.3%.
C=CC(=O)Nc1cccc(C(=O)Nc2ccc(Nc3cc(-c4[nH]c(SC)nc4C)ccn3)cc2)c1 showed a % of control ([11]; at 1 µM) of 102% and a % of control ([11]; at 5 µM) of 44%.
In the case of O=C(NOC[C@H](O)CO)c1ccc(F)c(F)c1Nc1ccc(I)cc1F, the % of control [12] is reported as 93%.
For Cc1cnc(Nc2ccc(F)cc2Cl)nc1-c1c[nH]c(C(=O)N[C@H](CO)c2cccc(Cl)c2)c1, the % of inhibition [13] was 10%.
Work on Cc1cc(F)c(C(=O)Nc2cccc(-c3nncn3C(C)C)n2)cc1-n1cnc(C2CC2)c1 yielded a % of control (Insulin receptor [14]) of 100%.
